Experimental data reported in publication PMC4550478, “Metronidazole-triazole conjugates: Activity against Clostridium difficile and parasites” (European Journal of Medicinal Chemistry, 2015).
Values after ≈ are worked out from the molar mass of the structure shown. Where two headings read alike, the source gives them in different places.

Key:
[1] = test system: G. lamblia BRIS/83/HEPU/106 (106); test: ATP-bioluminescence growth and survival assay, G. lamblia 106; type: cell-based; details: Giardia duodenalis, read-out: EC50 G. lamblia 106
Description: (§1) Compounds were tested for antiparasitic activity against E. histolytica (HM1:1MSS strain) and G. lamblia (WB, BRIS/87/HEPU/713 (713), BRIS/83/HEPU/106 (106) and the metronidazole resistant syngeneic line 713-M3 [[15,16]]) using an ATP-bioluminescence based screen for cell growth and survival [[17,18]]. Assay plates were inoculated with trophozoites (5 × 10^3 parasites/well) and incubated in the GasPak™ EZ Anaerobe Gas Generating Pouch Systems (VWR, West Chester, PA) to maintain anaerobic conditions throughout the incubation period. The assays were performed in triplicate using the CellTiter-Glo Luminescent Cell Viability Assay. Metronidazole was used as a positive control.
(§2) Trophozoites of E. histolytica strain HM1:IMSS and G. lamblia strains WB, BRIS/87/HEPU/713 (713),^10 BRIS/83/HEPU/106 (106)^11 and the metronidazole resistant syngenic line 713-M3^10,11 were axenically maintained in TYI-S-33 medium supplemented with penicillin (100 U/ml), streptomycin (100 µg/ml).^12 E. histolytica and G. lamblia trophozoites were counted using a particle counter (Beckman Coulter, Fullerton, CA). All experiments were performed using trophozoites harvested during the logarithmic phase of growth.
(§3) A three-fold serial dilution was then performed yielding a concentration range 0.25-625 µM. From this dilution plate, 4 µL were transferred into the 96-well screen plates followed by addition of 96 µL of trophozoites (5,000 parasites) to yield a final 8-point concentration range spanning 0.01- 25 µM. Assay plates were incubated for 48 h at 37 °C in the GasPak^TM EZ Anaerobe Gas Generating Pouch Systems (VWR, West Chester, PA) to maintain anaerobic condition throughout the incubation period. The assays were performed in triplicate using the CellTiter-Glo Luminescent Cell Viability Assay.^13

[2] = test system: G. lamblia BRIS/87/HEPU/713 (713); test: ATP-bioluminescence growth and survival assay, G. lamblia 713; type: cell-based; details: Giardia duodenalis, read-out: EC50 G. lamblia 713
Description: as §1, §2, §3

[3] = MIC against ESKAPE pathogens, aerobic; type: cell-based; details: aerobic conditions, single concentration screen, n = 3; read-out: MIC ESKAPE bacteria
Description: All compounds were tested for activity against a set of anaerobic C. difficile bacteria (630 ATCC BAA-1382, NAP1/027 M7404, NAP1/027 ATCC BAA-1803, VPI10463 ATCC 43255, CD26A54_S and CD26A54_R) and representative ESKAPE pathogens S. aureus (MRSA ATCC 43300), E. coli (ATCC 25922), K. pneumoniae (ATCC 700603), A. baumannii (ATCC 19606) and P. aeruginosa (ATCC 27853) using a standard broth microdilution assay. Selected compounds were tested for activity against H. pylori strains (26695, and clinical isolates MtzS 13/25, MtzR 98/285 and MtzR 13/61) using agar plate dilution, and for antimicrobial activity against twelve Gram-positive bacterial strains: Enterococcus faecalis (VanA clinical isolate), Enterococcus faecium (MDR VanA ATCC 51559), Streptococcus pneumoniae (MDR ATCC 700677), S. aureus (MRSA ATCC 43300, MRSA clinical isolate, MRSA/DRSA clinical isolate, GISA NARSA NRS 1, GISA NARSA NRS 17, VRSA NARSA VRS1, VRSA NARSA VRS4 and VRSA NARSA VRS10) using broth microdilution. C. difficile strains were grown at 37 °C in a COY anaerobic chamber (5% H2, 10% CO2, 85% N2). H. pylori strains were grown at 37 °C under a microaerobic atmosphere (5% O2, 10% CO2). All facultative anaerobic bacteria were grown at 37 °C with normal atmospheric oxygen levels. […] Positive growth control of bacteria and DMSO as well as a negative control of only media were included for every plate. Full assay details are provided in the supplementary information.
MICs were determined by a two-fold serial broth micro dilution according to the recommendation of CLSI standards with an inoculum of 5 × 10^5 CFU/mL^4 The compounds along with standard antibiotics were serially diluted twofold across the wells of 96-well non-binding surface plates (NBS, Corning). […] Gram-positive and Gram-negative bacteria were cultured in Mueller Hinton broth (MHB) (Bacto laboratories, Cat. no. 211443) at 37 °C overnight. A sample of each culture was then diluted 40-fold in fresh MHB broth and incubated at 37 °C for 2-3 h. The resultant mid-log phase cultures were diluted to the final concentration of 5 × 10^5 CFU/mL, then 50 μL was added to each well of the compound containing 96-well plates. All the plates were covered and incubated at 37 °C for 24 h.

[4] = test system: E. histolytica HM1:IMSS trophozoites; test: ATP-bioluminescence growth and survival assay, E. histolytica; type: cell-based, Entamoeba histolytica; details: MtzS, 48 h, anaerobic, n = 3
Description: as §1, §2, §3

[5] = test system: G. lamblia WB trophozoites; test: ATP-bioluminescence growth and survival assay, G. lamblia WB; type: cell-based, Giardia lamblia; details: MtzS, 48 h, anaerobic, n = 3
Description: as §1, §2, §3

G. lamblia 713-M3 (713M) = test: ATP-bioluminescence growth and survival assay, metronidazole resistant G. lamblia 713-M3; type: cell-based; details: Giardia duodenalis, read-out: EC50 G. lamblia 713M
Description: as §1, §2, §3

[6] = test system: C. difficile NAP1/027 CD26A54_R; test: MIC broth microdilution, metronidazole resistant C. difficile CD26A54_R; type: cell-based, Clostridium difficile; details: for MIC: Clostridioides difficile
[7] = test system: C. difficile NAP1/027 CD26A54_S; test: MIC broth microdilution, C. difficile CD26A54_S; type: cell-based, Clostridium difficile; details: for MIC: Clostridioides difficile
[8] = 24 hr incubation, read-out: MIC C. difficile NAP1/027 CD26A54_R 24 hr
[9] = CD26A54_R, MtzR, 48 h growth, BHIS broth, n = 8, read-out: MIC C. difficile NAP1/027 CD26A54_R 48 h
[10] = 24 hr incubation, read-out: MIC C. difficile NAP1/027 CD26A54_S 24 hr
[11] = CD26A54_S, MtzS (intermediary), 48 h growth, read-out: MIC C. difficile NAP1/027 CD26A54_S 48 h

SMILES	EC50 [1]	EC50 [2]	MIC [3]	EC50 ([4]; Entamoeba histolytica)	EC50 ([5]; Giardia duodenalis)	EC50 (G. lamblia 713-M3 (713M))	MIC [6, 8]	MIC [6, 9]	MIC [7, 10]	MIC [7, 11]	EC50 [4]	EC50 [5]	MIC C. difficile NAP1/027 CD26A54_R 24 hr ([6]; 24 hr incubation)	MIC C. difficile NAP1/027 CD26A54_R 48 h ([6]; CD26A54_R, MtzR, 48 h growth, BHIS broth, n = 8)	MIC C. difficile NAP1/027 CD26A54_S 24 hr ([7]; 24 hr incubation)	MIC C. difficile NAP1/027 CD26A54_S 48 h ([7]; CD26A54_S, MtzS (intermediary), 48 h growth)
Cc1ncc([N+](=O)[O-])n1CCn1cc(-c2ccc(Cl)c(Cl)c2)nn1 [Compound 4d, 1-(2-(2-methyl-5-nitro-1H-imidazol-1-yl)ethyl)-4-(3,4-dichlorophenyl)-1H-1,2,3-triazole]	1.1 µM	2.5 µM	> 32 µg/mL	5.2 µM	0.39 µM	1.2 µM	8 to 16 µg/mL (≈ 21.8 to 43.6 µM)	8 to 16 µg/mL (≈ 21.8 to 43.6 µM)	1 µg/mL (≈ 2.72 µM)	1 µg/mL (≈ 2.72 µM)	–	–	–	–	–	–
Cc1ncc([N+](=O)[O-])n1CCn1cc(Cn2cccn2)nn1 [Compound 4g, 1-(2-(2-methyl-5-nitro-1H-imidazol-1-yl)ethyl)-4-((1H-pyrazol-1-yl)methyl)-1H-1,2,3-triazole]	–	–	> 32 µg/mL	> 25 µM	4.9 µM	–	4 µg/mL (≈ 13.2 µM)	4 µg/mL (≈ 13.2 µM)	2 µg/mL (≈ 6.62 µM)	2 µg/mL (≈ 6.62 µM)	–	–	–	–	–	–
Cc1ncc([N+](=O)[O-])n1CCn1cc(C(O)c2ccccc2)nn1 (centres unmarked) [Compound 4l, 1-(2-(2-methyl-5-nitro-1H-imidazol-1-yl)ethyl)-4-(1-phenyl-1-hydroxylmethyl)-1H-1,2,3-triazole]	2.2 µM	2.4 µM	> 32 µg/mL	> 25 µM	4.4 µM	3 µM	4 µg/mL (≈ 12.2 µM)	4 µg/mL (≈ 12.2 µM)	2 µg/mL (≈ 6.09 µM)	2 µg/mL (≈ 6.09 µM)	–	–	–	–	–	–
Cc1ncc([N+](=O)[O-])n1CCn1cc(CN2CCS(=O)(=O)CC2)nn1 [Compound 4o, 1-(2-(2-methyl-5-nitro-1H-imidazol-1-yl)ethyl)-4-((1,1-dioxothiomorpholin-4-yl)methyl)-1H-1,2,3-triazole]	–	–	> 32 µg/mL	> 25 µM	> 25 µM	–	> 64 µg/mL	> 64 µg/mL	> 64 µg/mL	> 64 µg/mL	–	–	–	–	–	–
Cc1ncc([N+](=O)[O-])n1CCN=[N+]=[N-] [Compound 3, 1-(2-azidoethyl)-2-methyl-5-nitro-1H-imidazole]	–	–	–	–	–	–	–	–	–	–	2.1 µM	1.5 µM	4 µg/mL (≈ 20.4 µM)	8 µg/mL (≈ 40.8 µM)	2 µg/mL (≈ 10.2 µM)	2 µg/mL (≈ 10.2 µM)
Cc1ncc([N+](=O)[O-])n1CCn1cc(C(=O)O)nn1 [Compound 4s, 1-(2-(2-methyl-5-nitro-1H-imidazol-1-yl)ethyl)-4-(carboxy)-1H-1,2,3-triazole]	–	–	> 32 µg/mL	> 25 µM	> 25 µM	–	> 64 µg/mL	> 64 µg/mL	> 64 µg/mL	> 64 µg/mL	–	–	–	–	–	–
Cc1ncc([N+](=O)[O-])n1CCn1cc(CO)nn1 [Compound 4q, 1-(2-(2-methyl-5-nitro-1H-imidazol-1-yl)ethyl)-4-(hydroxymethyl)-1H-1,2,3-triazole]	–	–	> 32 µg/mL	> 25 µM	> 25 µM	–	16 µg/mL (≈ 63.4 µM)	16 µg/mL (≈ 63.4 µM)	16 µg/mL (≈ 63.4 µM)	16 to 32 µg/mL (≈ 63.4 to 127 µM)	–	–	–	–	–	–
Cc1ncc([N+](=O)[O-])n1CCn1cc(CN)nn1.O=C(O)C(F)(F)F [Compound 4t, 1-(2-(2-methyl-5-nitro-1H-imidazol-1-yl)ethyl)-4-(aminomethyl)-1H-1,2,3-triazole trifluoroacetate salt]	–	–	> 32 µg/mL	> 25 µM	> 25 µM	–	> 64 µg/mL	> 64 µg/mL	> 64 µg/mL	> 64 µg/mL	–	–	–	–	–	–
Cc1ncc([N+](=O)[O-])n1CCn1cc(-c2ncccn2)nn1 [Compound 4j, 1-(2-(2-methyl-5-nitro-1H-imidazol-1-yl)ethyl)-4-(2-pyrimidinyl)-1H-1,2,3-triazole]	–	–	> 32 µg/mL	> 25 µM	1.7 µM	–	4 µg/mL (≈ 13.3 µM)	4 µg/mL (≈ 13.3 µM)	2 µg/mL (≈ 6.66 µM)	2 to 4 µg/mL (≈ 6.66 to 13.3 µM)	–	–	–	–	–	–
Cc1ncc([N+](=O)[O-])n1CCn1cc(-c2cncnc2)nn1 [Compound 4i, 1-(2-(2-methyl-5-nitro-1H-imidazol-1-yl)ethyl)-4-(5-pyrimidinyl)-1H-1,2,3-triazole]	–	–	> 32 µg/mL	> 25 µM	3.3 µM	–	2 µg/mL (≈ 6.66 µM)	4 µg/mL (≈ 13.3 µM)	1 µg/mL (≈ 3.33 µM)	1 µg/mL (≈ 3.33 µM)	–	–	–	–	–	–
Cc1ncc([N+](=O)[O-])n1CCn1cc(CCO)nn1 [Compound 4p, 1-(2-(2-methyl-5-nitro-1H-imidazol-1-yl)ethyl)-4-(2-hydroxyethyl)-1H-1,2,3-triazole]	–	–	> 32 µg/mL	> 25 µM	> 25 µM	–	8 to 16 µg/mL (≈ 30 to 60.1 µM)	16 µg/mL (≈ 60.1 µM)	8 µg/mL (≈ 30 µM)	8 µg/mL (≈ 30 µM)	–	–	–	–	–	–
Cc1ncc([N+](=O)[O-])n1CCn1cc(CCC(=O)O)nn1 [Compound 4r, sodium 1-(2-(2-methyl-5-nitro-1H-imidazol-1-yl)ethyl)-4-(carboxyethyl)-1H-1,2,3-triazole]	–	–	> 32 µg/mL	> 25 µM	> 25 µM	–	> 64 µg/mL	> 64 µg/mL	> 64 µg/mL	> 64 µg/mL	–	–	–	–	–	–
